# US9409905B2, “Antibacterial compounds and methods for use” (PTC THERAPEUTICS, INC., priority 2011, dated 2016)
# Key:
# E. coli LZ3111 = test: Antibacterial activity, MIC, quinolone resistant strain (Table 2); type: cell-based; details: Escherichia coli, LZ3111, read-out: MIC LZ3111
# Summary of the method: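 MIC values (μg/mL) came from a microbroth dilution assay, scored as the lowest drug concentration at which no growth was visible by eye.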
# E. coli 25922 = test: Antibacterial activity, microbroth dilution MIC (Table 1); type: cell-based, Escherichia coli; details: Escherichia coli; microbroth dilution; control Gram-negative E. coli 25922 strain; read-out: MIC, 25922
# Summary of the method: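 Values are MICs (μg/mL): the smallest drug amount at which macroscopically visible bacterial growth is absent under assay conditions, from a microdilution method in broth.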
# K. pneumoniae MXX1232 = test: Antibacterial activity, MIC, resistant strain (Table 4); type: cell-based; details: Klebsiella pneumoniae, MXX1232; resistant K. pneumoniae MMX1232, multi-drug resistant clinical isolate; read-out: MIC, MMX1232
# Summary of the method: (§1)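 Activity was measured by microbroth dilution. The MIC, in μg/mL, is the lowest drug concentration that prevents macroscopically visible growth under the test conditions. The resistant strains are multi-drug resistant clinical isolates.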
# A. baumannii MXX2240 = test: as above; type: cell-based; details: Acinetobacter baumannii, MXX2240; resistant A. baumannii MMX2240, multi-drug resistant clinical isolate; read-out: MIC, MMX2240
# Summary of the method: as §1
# [1] = test system: Klebsiella pneumoniae (K. pneumoniae) 35657; test: Antibacterial activity, MIC (Table 4); type: cell-based; details: K. pneumoniae 35657, read-out: MIC, 35657
# Summary of the method: as §1
# [2] = test system: Acinetobacter baumannii (A. baumannii) BAA747; test: Antibacterial activity, MIC (Table 4); type: cell-based; details: A. baumannii BAA747, read-out: MIC, BAA747
# Summary of the method: as §1
# [3] = test system: Pseudomonas aeruginosa (P. aeruginosa) 27853; test: Antibacterial activity, MIC (Table 5); type: cell-based; details: P. aeruginosa 27853, read-out: MIC, 27853
# Summary of the method: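 Values are MICs in μg/mL, read as the lowest concentration at which no growth is visible by eye. They were determined by a microbroth dilution method.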
# [4] = test system: Staphylococcus aureus (S. aureus) 29213; test: Antibacterial activity, microbroth dilution MIC (Table 1); type: cell-based; details: microbroth dilution, Gram-positive S. aureus 29213, read-out: MIC, 29213
# Summary of the method: (§2)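 Microbroth dilution was used. MIC, in μg/mL, is the lowest drug concentration preventing macroscopically visible growth under the test conditions.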
# [5] = test system: Escherichia coli (E. coli) BAS849; test: as above; type: cell-based; details: microbroth dilution, super sensitive Gram-negative E. coli BAS849, read-out: MIC, BAS849
# Summary of the method: as §2
Structure (SMILES),MIC (E. coli LZ3111),MIC (E. coli 25922),MIC (K. pneumoniae MXX1232),MIC (A. baumannii MXX2240),MIC [1],MIC [2],MIC [3],MIC [4],MIC [5]
"CCN(CC)Cc1cc2cc(-c3[nH]c(=O)c(C(=O)O)c(O)c3C)ccc2n1C [Cpd 357, 6-(2-((diethylamino)methyl)-1-methyl-1H-indol-5-yl)-4-hydroxy-5-methyl-2-oxo-1,2-dihydropyridine-3-carboxylic acid]",1 to 3.5 µg/mL,3.5 to 12.5 µg/mL,12.5 to 150 µg/mL,3.5 to 12.5 µg/mL,3.5 to 12.5 µg/mL,3.5 to 12.5 µg/mL,12.5 to 150 µg/mL,12.5 to 150 µg/mL,< 1 µg/mL
"Cc1c(-c2ccc3c(c2)cc(CN)n3C)[nH]c(=O)c(C(=O)O)c1O [Cpd 358, 6-(2-(aminomethyl)-1-methyl-1H-indol-5-yl)-4-hydroxy-5-methyl-2-oxo-1,2-dihydropyridine-3-carboxylic acid]",1 to 3.5 µg/mL,3.5 to 12.5 µg/mL,12.5 to 150 µg/mL,3.5 to 12.5 µg/mL,1 to 3.5 µg/mL,12.5 to 150 µg/mL,12.5 to 150 µg/mL,12.5 to 150 µg/mL,1 to 3.5 µg/mL
"CCc1c(-c2ccc3c(c2)c(F)c(CNC)n3C)[nH]c(=O)c(C(=O)O)c1O [Cpd 368, 5-ethyl-6-(3-fluoro-1-methyl-2-((methylamino)methyl)-1H-indol-5-yl)-4-hydroxy-2-oxo-1,2-dihydropyridine-3-carboxylic acid]",3.5 to 12.5 µg/mL,1 to 3.5 µg/mL,12.5 to 150 µg/mL,3.5 to 12.5 µg/mL,1 to 3.5 µg/mL,1 to 3.5 µg/mL,12.5 to 150 µg/mL,12.5 to 150 µg/mL,< 1 µg/mL
"CCNCc1c(F)c2cc(-c3[nH]c(=O)c(C(=O)O)c(O)c3CC)ccc2n1C [Cpd 369, 5-ethyl-6-(2-((ethylamino)methyl)-3-fluoro-1-methyl-1H-indol-5-yl)-4-hydroxy-2-oxo-1,2-dihydropyridine-3-carboxylic acid]",3.5 to 12.5 µg/mL,1 to 3.5 µg/mL,12.5 to 150 µg/mL,3.5 to 12.5 µg/mL,< 1 µg/mL,1 to 3.5 µg/mL,12.5 to 150 µg/mL,12.5 to 150 µg/mL,< 1 µg/mL
"CCc1c(-c2ccc3c(c2)c(F)c(CNC(C)C)n3C)[nH]c(=O)c(C(=O)O)c1O [Cpd 370, 5-ethyl-6-(3-fluoro-2-((isopropylamino)methyl)-1-methyl-1H-indol-5-yl)-4-hydroxy-2-oxo-1,2-dihydropyridine-3-carboxylic acid]",3.5 to 12.5 µg/mL,< 1 µg/mL,12.5 to 150 µg/mL,3.5 to 12.5 µg/mL,3.5 to 12.5 µg/mL,1 to 3.5 µg/mL,12.5 to 150 µg/mL,3.5 to 12.5 µg/mL,< 1 µg/mL
"CCc1c(-c2ccc3c(c2)c(F)c(CNC(C)(C)C)n3C)[nH]c(=O)c(C(=O)O)c1O [Cpd 371, 6-(2-((tert-butylamino)methyl)-3-fluoro-1-methyl-1H-indol-5-yl)-5-ethyl-4-hydroxy-2-oxo-1,2-dihydropyridine-3-carboxylic acid]",12.5 to 150 µg/mL,1 to 3.5 µg/mL,12.5 to 150 µg/mL,3.5 to 12.5 µg/mL,1 to 3.5 µg/mL,3.5 to 12.5 µg/mL,12.5 to 150 µg/mL,12.5 to 150 µg/mL,< 1 µg/mL
"CCc1cc(C(=O)O)c(=O)[nH]c1-c1ccc2c(ccn2C)c1OCc1ccccc1 [Cpd 372, 6-(4-(benzyloxy)-1-methyl-1H-indol-5-yl)-5-ethyl-2-oxo-1,2-dihydropyridine-3-carboxylic acid]",12.5 to 150 µg/mL,12.5 to 150 µg/mL,12.5 to 150 µg/mL,12.5 to 150 µg/mL,12.5 to 150 µg/mL,12.5 to 150 µg/mL,12.5 to 150 µg/mL,12.5 to 150 µg/mL,12.5 to 150 µg/mL
"CCc1c(-c2ccc3c(ccn3C)c2OCc2ccccc2)[nH]c(=O)c(C(=O)O)c1O [Cpd 373, 6-(4-(benzyloxy)-1-methyl-1H-indol-5-yl)-5-ethyl-4-hydroxy-2-oxo-1,2-dihydropyridine-3-carboxylic acid]",12.5 to 150 µg/mL,12.5 to 150 µg/mL,12.5 to 150 µg/mL,12.5 to 150 µg/mL,12.5 to 150 µg/mL,12.5 to 150 µg/mL,12.5 to 150 µg/mL,1 to 3.5 µg/mL,3.5 to 12.5 µg/mL
"CCc1c(-c2ccc3c(ccn3C)c2O)[nH]c(=O)c(C(=O)O)c1O [Cpd 374, 5-ethyl-4-hydroxy-6-(4-hydroxy-1-methyl-1H-indol-5-yl)-2-oxo-1,2-dihydropyridine-3-carboxylic acid]",12.5 to 150 µg/mL,12.5 to 150 µg/mL,12.5 to 150 µg/mL,12.5 to 150 µg/mL,12.5 to 150 µg/mL,12.5 to 150 µg/mL,12.5 to 150 µg/mL,12.5 to 150 µg/mL,12.5 to 150 µg/mL
"C=CC1C(O)=C(C(=O)O)C(=O)NC1c1ccc2c(ccn2C)c1 (stereo not drawn) [Cpd 375, 4-hydroxy-6-(1-methyl-1H-indol-5-yl)-2-oxo-5-vinyl-1,2,5,6-tetrahydropyridine-3-carboxylic acid]",1 to 3.5 µg/mL,12.5 to 150 µg/mL,12.5 to 150 µg/mL,1 to 3.5 µg/mL,12.5 to 150 µg/mL,12.5 to 150 µg/mL,12.5 to 150 µg/mL,12.5 to 150 µg/mL,< 1 µg/mL
"Cn1ccc2cc(-c3[nH]c(=O)c(C(=O)O)c(O)c3Cl)ccc21 [Cpd 376, 5-chloro-4-hydroxy-6-(1-methyl-1H-indol-5-yl)-2-oxo-1,2-dihydropyridine-3-carboxylic acid]",12.5 to 150 µg/mL,12.5 to 150 µg/mL,12.5 to 150 µg/mL,12.5 to 150 µg/mL,12.5 to 150 µg/mL,12.5 to 150 µg/mL,12.5 to 150 µg/mL,12.5 to 150 µg/mL,3.5 to 12.5 µg/mL
"COc1c(-c2ccc3c(ccn3C)c2)[nH]c(=O)c(C(=O)O)c1O [Cpd 377, 4-hydroxy-5-methoxy-6-(1-methyl-1H-indol-5-yl)-2-oxo-1,2-dihydropyridine-3-carboxylic acid]",3.5 to 12.5 µg/mL,12.5 to 150 µg/mL,12.5 to 150 µg/mL,3.5 to 12.5 µg/mL,12.5 to 150 µg/mL,12.5 to 150 µg/mL,12.5 to 150 µg/mL,12.5 to 150 µg/mL,< 1 µg/mL
"CCOc1c(-c2ccc3c(ccn3C)c2)[nH]c(=O)c(C(=O)O)c1O [Cpd 378, 4-hydroxy-5-ethoxy-6-(1-methyl-1H-indol-5-yl)-2-oxo-1,2-dihydropyridine-3-carboxylic acid]",3.5 to 12.5 µg/mL,12.5 to 150 µg/mL,12.5 to 150 µg/mL,3.5 to 12.5 µg/mL,12.5 to 150 µg/mL,12.5 to 150 µg/mL,12.5 to 150 µg/mL,12.5 to 150 µg/mL,3.5 to 12.5 µg/mL
"CCc1c(-c2cc3ccc(OC)cc3[nH]2)[nH]c(=O)c(C(=O)O)c1O [Cpd 379, 5-ethyl-4-hydroxy-6-(6-methoxy-1H-indol-2-yl)-2-oxo-1,2-dihydropyridine-3-carboxylic acid]",12.5 to 150 µg/mL,12.5 to 150 µg/mL,12.5 to 150 µg/mL,12.5 to 150 µg/mL,12.5 to 150 µg/mL,12.5 to 150 µg/mL,12.5 to 150 µg/mL,12.5 to 150 µg/mL,3.5 to 12.5 µg/mL
"CCc1c(-c2cc3cc(F)ccc3[nH]2)[nH]c(=O)c(C(=O)O)c1O [Cpd 380, 5-ethyl-6-(5-fluoro-1H-indol-2-yl)-4-hydroxy-2-oxo-1,2-dihydropyridine-3-carboxylic acid]",12.5 to 150 µg/mL,12.5 to 150 µg/mL,12.5 to 150 µg/mL,12.5 to 150 µg/mL,12.5 to 150 µg/mL,12.5 to 150 µg/mL,12.5 to 150 µg/mL,12.5 to 150 µg/mL,3.5 to 12.5 µg/mL
